The source of these data is patent publication US6252079A, “Intermediates in the synthesis of camptothecin and related compounds and synthesis thereof” (University of Pittsburgh, priority 1997, dated 2001).

Test [1] deals with colon cancer xenografts. The following applies: dose levels that were well tolerated; cited from earlier work.
In test [2] the target is T1, Topoisomerase I (Homo sapiens, UniProt P11387).
T1 construct: supercoiled DNA relaxation and DNA cleavage assays
T1 sequence (P11387 2-765): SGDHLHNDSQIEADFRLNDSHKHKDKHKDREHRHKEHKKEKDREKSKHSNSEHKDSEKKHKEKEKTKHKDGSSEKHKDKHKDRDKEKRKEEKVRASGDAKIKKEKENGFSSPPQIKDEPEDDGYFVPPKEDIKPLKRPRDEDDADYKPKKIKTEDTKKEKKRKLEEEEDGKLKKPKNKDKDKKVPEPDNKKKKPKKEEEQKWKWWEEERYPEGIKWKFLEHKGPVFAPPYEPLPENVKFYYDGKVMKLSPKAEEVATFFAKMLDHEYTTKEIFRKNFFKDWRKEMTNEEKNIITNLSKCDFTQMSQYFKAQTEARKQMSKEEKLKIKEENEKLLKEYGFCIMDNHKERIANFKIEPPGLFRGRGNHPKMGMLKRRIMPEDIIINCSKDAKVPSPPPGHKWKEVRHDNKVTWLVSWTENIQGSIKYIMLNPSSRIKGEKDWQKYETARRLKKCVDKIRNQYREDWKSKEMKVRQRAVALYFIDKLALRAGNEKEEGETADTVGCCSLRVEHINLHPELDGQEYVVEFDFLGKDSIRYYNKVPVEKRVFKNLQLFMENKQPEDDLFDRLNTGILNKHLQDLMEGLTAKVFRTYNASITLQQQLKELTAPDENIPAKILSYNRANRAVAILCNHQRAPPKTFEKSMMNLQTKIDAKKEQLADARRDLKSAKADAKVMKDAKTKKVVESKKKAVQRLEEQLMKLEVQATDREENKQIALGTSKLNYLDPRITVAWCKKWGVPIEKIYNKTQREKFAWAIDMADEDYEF
As to the kind of experiment: Induction of Topoisomerase I-mediated DNA cleavage. It is filed as biochemical. The following applies: 22d compared with CPT.

For test [3], the system named is HL-60 human promyelocytic leukemic cells. As to the kind of experiment: Cytotoxicity, HL-60 cells. The class given is cell-based. On the procedure: Cytotoxicity and Topoisomerase I-mediated effect studies of compounds 22d and (20S)-camptothecin were performed at the Laboratory for Bioorganic Chemistry, Memorial Sloan-Kettering Institute Cancer Center, New York with the following results:
1. IC50 (HL-60 human promyelocytic leukemic cells, μmol): 0.004 (22d); 0.004 (CPT).

Test [4] addresses T1, Topoisomerase I. Description: Inhibition of Topoisomerase I-mediated relaxation of supercoiled DNA. The class given is biochemical. The following applies: 22d compared with CPT.
Test [5] deals with 833 K human teratocarcinoma cells. As to the kind of experiment: Cytotoxicity, 833 K cells. The class given is cell-based. The following applies: read-out: IC50 (833 K human teratocarcinoma cells). On the procedure:
Cytotoxicity and Topoisomerase I-mediated effect studies of compounds 22d and (20S)-camptothecin were performed at the Laboratory for Bioorganic Chemistry, Memorial Sloan-Kettering Institute Cancer Center, New York with the following results: […]

Test [6] concerns thirteen human xenograft lines, including colon, lung, breast, stomach, ovary, and malignant melanoma. The following applies: 20% interlipid formulation, intramuscularly and orally, non-toxic doses; cited from earlier work.

The structures appear in SMILES notation. pIC50: −log10 of the molar value. Where two headings read alike, the source gives them in different places.

Turning to `CCC1(O)C(=O)OCc2c1cc1n(c2=O)Cc2cc3c(N)cccc3nc2-1` (racemic) [Racemic 9-aminocamptothecin, 9-aminocamptothecin], in test [1], the “efficacy in mice carrying colon cancer xenografts” value was “very effective”.
Regarding `CC[C@@]1(O)C(=O)OCc2c1cc1n(c2=O)Cc2c-1nc1ccccc1c2[Si](C)(C)C` [Compound 22d, (20S)-7-Trimethylsilylcamptothecin], the “potency in the induction of Topoisomerase I-mediated DNA cleavage” value in test [2] was “Same potency”. Further, the negative-log IC50 (pIC50) (as a rule, −log10 of the IC50, conventionally taken in molar units) in test [3] (HL-60 cells, cytotoxicity, read-out: IC50 (HL-60 human promyelocytic leukemic cells)) was 8.40; in test [5] (833 K cells, cytotoxicity), 8.36. In addition, in test [4], the “potency in the inhibition of Topoisomerase I-mediated relaxation of supercoiled DNA” value is on record as “Same potency”.
With `CC[C@@]1(O)C(=O)OCc2c1cc1n(c2=O)Cc2cc3ccccc3nc2-1` [CPT, (20S)-camptothecin], the “effect on growth of human xenograft lines” value in test [6] is “suppressed growth and induced regression of cancer in thirteen human xenograft lines”. The “potency in the induction of Topoisomerase I-mediated DNA cleavage” value in test [2] was “Same potency”. In addition, the pIC50 in test [3] (HL-60, read-out: IC50 (HL-60 human promyelocytic leukemic cells)) is 8.40; in test [5] (833K), 8.26. For the same compound, the “potency in the inhibition of Topoisomerase I-mediated relaxation of supercoiled DNA” value in test [4] was “Same potency”.
